According to US20050009730A1, “Treatment of cns disorders using cns target modulators” (priority 2001, published 2005):

What was measured:
[1] = target: Histamine, H1 (Homo sapiens, UniProt P35367); experiment: H1 binding assay by displacement of known standards; conditions: read-out: Receptor Binding Data (Ki nM) H1
Experimental: The following binding assays were performed on the Series 11 compounds described above by displacement of known standards from the H1, M1, M2, and M3 receptors, wherein H1 is a histamine receptor, and M1, M2, and M3 are muscarinic receptors.
The binding studies against the histamine receptor, H1, indicate binding affinity, and therefore the results of the binding assays are an indication of the activity of the compound. […]
The following binding assays were performed on additional compounds described above by displacement of known standards from the H1, M1, M2, and M3 receptors, wherein H1 is a histamine receptor, and M1, M2, and M3 are muscarinic receptors.
The binding assays for H1 was the same as described in Example 10 and the M1, M2, and M3 binding assays are the same as those described in Example 10 for human recombinant expressed cells.

[2] = target: Histamine, H2 (Homo sapiens, UniProt P25021); experiment: Receptor selectivity binding assay comparison; conditions: 1.0E−6
[3] = target: T1, Muscarinic, M1 (Human Recombinant) (Homo sapiens, UniProt P11229); experiment: Receptor selectivity binding assay comparison; conditions: 1.0E−6
T1 sequence (P11229 1-460): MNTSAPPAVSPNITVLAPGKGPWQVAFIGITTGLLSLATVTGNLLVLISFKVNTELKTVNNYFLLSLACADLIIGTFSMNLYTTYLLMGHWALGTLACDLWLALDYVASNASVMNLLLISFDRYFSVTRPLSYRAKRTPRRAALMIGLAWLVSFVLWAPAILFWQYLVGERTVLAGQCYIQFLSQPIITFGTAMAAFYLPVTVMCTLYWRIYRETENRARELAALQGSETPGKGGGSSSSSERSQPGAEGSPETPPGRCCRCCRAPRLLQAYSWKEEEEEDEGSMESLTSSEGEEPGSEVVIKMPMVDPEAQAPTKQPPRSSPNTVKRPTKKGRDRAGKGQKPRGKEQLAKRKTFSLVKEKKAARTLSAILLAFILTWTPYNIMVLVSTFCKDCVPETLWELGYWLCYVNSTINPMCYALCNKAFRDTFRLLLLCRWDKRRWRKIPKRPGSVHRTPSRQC

[4] = target: Norepinephrine Transporter (Homo sapiens, UniProt P23975); experiment: Receptor selectivity binding assay comparison; conditions: 1.0E−6
[5] = target: HERG (Homo sapiens, UniProt Q12809)
[6] = system: Male Wistar rats; experiment: Sleep-wakefulness, locomotor activity and body temperature monitoring (SCORE-2000), treatment at CT-18; conditions: 30 mg/kg PO, at CT-18

Sequence of Norepinephrine Transporter (P23975 whole entry, species assumed): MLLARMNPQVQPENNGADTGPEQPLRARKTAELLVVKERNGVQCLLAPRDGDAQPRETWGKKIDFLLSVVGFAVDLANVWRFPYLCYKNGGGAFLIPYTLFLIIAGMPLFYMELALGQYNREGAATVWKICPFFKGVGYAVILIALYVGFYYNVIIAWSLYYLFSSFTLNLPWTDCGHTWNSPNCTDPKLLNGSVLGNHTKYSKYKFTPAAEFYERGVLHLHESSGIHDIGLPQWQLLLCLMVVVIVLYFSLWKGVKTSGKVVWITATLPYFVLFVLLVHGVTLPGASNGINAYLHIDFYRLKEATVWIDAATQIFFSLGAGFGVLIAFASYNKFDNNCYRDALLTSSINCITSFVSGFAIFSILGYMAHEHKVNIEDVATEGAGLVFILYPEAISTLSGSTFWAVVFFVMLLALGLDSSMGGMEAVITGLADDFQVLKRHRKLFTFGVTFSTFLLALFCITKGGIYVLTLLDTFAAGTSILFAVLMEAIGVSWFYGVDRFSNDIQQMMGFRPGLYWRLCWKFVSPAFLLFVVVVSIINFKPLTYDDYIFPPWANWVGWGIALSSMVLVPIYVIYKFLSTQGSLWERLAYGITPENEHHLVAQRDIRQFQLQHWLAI
Sequence of HERG (Q12809 whole entry): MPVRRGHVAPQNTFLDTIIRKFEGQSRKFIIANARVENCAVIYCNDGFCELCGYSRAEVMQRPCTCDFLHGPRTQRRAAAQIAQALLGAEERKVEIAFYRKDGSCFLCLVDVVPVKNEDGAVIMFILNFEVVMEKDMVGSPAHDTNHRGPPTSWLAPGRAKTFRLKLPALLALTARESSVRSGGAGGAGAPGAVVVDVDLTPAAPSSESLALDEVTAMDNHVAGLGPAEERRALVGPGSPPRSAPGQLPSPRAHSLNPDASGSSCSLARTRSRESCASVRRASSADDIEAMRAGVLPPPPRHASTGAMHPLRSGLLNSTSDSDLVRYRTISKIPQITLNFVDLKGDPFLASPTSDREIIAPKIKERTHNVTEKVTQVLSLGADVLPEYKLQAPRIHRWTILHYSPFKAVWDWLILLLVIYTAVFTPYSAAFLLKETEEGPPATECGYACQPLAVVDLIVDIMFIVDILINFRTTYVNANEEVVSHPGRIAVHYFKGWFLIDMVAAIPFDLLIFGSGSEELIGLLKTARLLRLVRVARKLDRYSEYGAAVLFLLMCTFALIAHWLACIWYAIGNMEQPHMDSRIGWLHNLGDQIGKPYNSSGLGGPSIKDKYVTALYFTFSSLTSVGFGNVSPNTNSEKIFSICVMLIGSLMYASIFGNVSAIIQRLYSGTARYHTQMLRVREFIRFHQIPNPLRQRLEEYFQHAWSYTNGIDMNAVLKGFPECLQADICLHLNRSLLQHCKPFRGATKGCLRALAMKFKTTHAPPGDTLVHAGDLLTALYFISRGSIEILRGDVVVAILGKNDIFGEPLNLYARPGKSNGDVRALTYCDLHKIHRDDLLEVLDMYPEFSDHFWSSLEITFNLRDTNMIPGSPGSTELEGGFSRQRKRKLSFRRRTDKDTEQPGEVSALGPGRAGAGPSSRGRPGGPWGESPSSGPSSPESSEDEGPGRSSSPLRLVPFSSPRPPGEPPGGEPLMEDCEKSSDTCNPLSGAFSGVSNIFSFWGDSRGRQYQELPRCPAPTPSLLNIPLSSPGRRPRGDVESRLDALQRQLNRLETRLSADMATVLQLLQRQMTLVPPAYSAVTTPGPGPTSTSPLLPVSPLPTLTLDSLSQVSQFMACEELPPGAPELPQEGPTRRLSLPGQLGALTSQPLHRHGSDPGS
Sequence of Histamine, H1 (P35367 whole entry): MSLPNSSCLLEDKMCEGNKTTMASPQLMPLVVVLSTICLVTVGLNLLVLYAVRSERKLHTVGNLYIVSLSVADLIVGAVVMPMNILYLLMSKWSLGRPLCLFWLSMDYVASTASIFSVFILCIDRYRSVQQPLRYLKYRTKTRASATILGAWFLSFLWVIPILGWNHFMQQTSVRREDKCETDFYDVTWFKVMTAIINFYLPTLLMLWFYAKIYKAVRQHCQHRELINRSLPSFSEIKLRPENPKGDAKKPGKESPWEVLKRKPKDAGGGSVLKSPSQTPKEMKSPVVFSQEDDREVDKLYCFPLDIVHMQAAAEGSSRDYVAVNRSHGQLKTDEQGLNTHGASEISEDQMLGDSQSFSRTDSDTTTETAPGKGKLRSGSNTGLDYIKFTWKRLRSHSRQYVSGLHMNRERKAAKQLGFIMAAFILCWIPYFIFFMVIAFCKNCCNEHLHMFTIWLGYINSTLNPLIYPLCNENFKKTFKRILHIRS
Sequence of Histamine, H2 (P25021 whole entry): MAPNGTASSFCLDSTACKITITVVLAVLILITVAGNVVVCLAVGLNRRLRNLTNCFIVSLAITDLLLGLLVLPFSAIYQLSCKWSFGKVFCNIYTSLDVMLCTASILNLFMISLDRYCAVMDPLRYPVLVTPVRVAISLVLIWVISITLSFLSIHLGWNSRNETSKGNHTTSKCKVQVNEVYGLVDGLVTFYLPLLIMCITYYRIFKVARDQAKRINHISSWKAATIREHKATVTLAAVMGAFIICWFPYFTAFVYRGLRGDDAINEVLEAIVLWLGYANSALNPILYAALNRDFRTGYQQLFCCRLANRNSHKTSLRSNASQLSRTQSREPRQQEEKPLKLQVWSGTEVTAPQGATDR

SMILES: O=C(O)CCN1CCC(=C2c3ccccc3COc3ccccc32)CC1 [Series 8a]
- Ki [1]: 62.5 nM
- Percent Inhibition, Histamine, H2 [2]: 33.4%
- Percent Inhibition, Muscarinic, M1 (Human Recombinant) [3]: 3.3%
- Percent Inhibition, Norepinephrine Transporter [4]: −3.9%
- Percent Inhibition, HERG [5]: 4%
- Average Bout-Length [6]: 12.2 min
- Maximum Bout Length [6]: 28.9 min
- NREM Accum. [6]: 65.8 min
- NREM Peak [6]: 75.5 %/hr
- Onset [6]: 65 min
